From patent US11339171B2, “MDM2 inhibitors” (Gan & Lee Pharmaceuticals, priority 2017, dated 2022)
Where “and” joins values, the source holds several entries; their conditions need not be identical. Equal entries are not always repeated. Where two headings read alike, the source gives them in different places.

Assays:
MDM2 = target: T1, MDM2 (Homo sapiens, UniProt Q00987); assay: Inhibition test of MDM2-P53 (GST-MDM2, Biotin-P53, Anti-GST-Tb, SA-XL665); assay type: binding
T1 construct: made in house
In short: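 Compounds, serially diluted 5-fold (twelve concentrations), were shaken for 90 min at 25° C with a mix of GST-MDM2 (4 nM final), Biotin-P53, anti-GST-Tb and SA-XL665. Buffer: 1×PBS, 0.1% BSA, 5 mM DTT, 1 mM AEBSF; signal read on a microplate reader.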

[1] = Pharmacokinetics in ICR mice after intravenous and intragastric administration; assay type: in vivo; settings: for F*: PO 5 mg/kg vs IV 2 mg/kg; for MRT last: read-out: MRT(0-t); for MRT inf: read-out: MRT(0-∞); for Vd: read-out: Vz
In short: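 Male ICR mice aged 6-9 weeks are dosed after an overnight fast, intravenously at 2 mg/kg and orally by gavage at 5 mg/kg. Plasma drug is measured by LC-MS/MS over a 1-2000 ng/ml range.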

[2] = tested on: human osteosarcoma cell line SJSA-1; assay: Inhibition of proliferation of human osteosarcoma cell line SJSA-1 (DAPI staining, In Cell Analyzer); settings: Homo sapiens, SJSA-1, 72 h, read-out: IC50 (nM), inhibitory activity on proliferation of human osteosarcoma cell line SJSA-1, SJSA-1, incubated 72 h
[3] = IV 2 mg/kg, ICR mice, individual animal, 2 mg/kg
[4] = PO 5 mg/kg, ICR mice, individual animal, 5 mg/kg
[5] = male, ICR, mouse, plasma, iv, 2 mg/kg, IV 2 mg/kg, ICR mice, Mean
[6] = male, ICR, mouse, plasma, iv, 2 mg/kg, IV 2 mg/kg, ICR mice, Mean, read-out: AUC(0-t)
[7] = male, ICR, mouse, plasma, iv, 2 mg/kg, IV 2 mg/kg, ICR mice, Mean, read-out: Cmax
[8] = male, ICR, mouse, plasma, iv, 2 mg/kg, IV 2 mg/kg, ICR mice, Mean, read-out: Tmax
[9] = male, ICR, mouse, plasma, iv, 2 mg/kg, IV 2 mg/kg, ICR mice, Mean, read-out: t1/2 (converted)
[10] = male, ICR, mouse, plasma, iv, 2 mg/kg, IV 2 mg/kg, ICR mice, individual animal
[11] = male, ICR, mouse, plasma, iv, 2 mg/kg, IV 2 mg/kg, ICR mice, individual animal, read-out: AUC(0-t)
[12] = male, ICR, mouse, plasma, iv, 2 mg/kg, IV 2 mg/kg, ICR mice, individual animal, read-out: Cmax
[13] = male, ICR, mouse, plasma, iv, 2 mg/kg, IV 2 mg/kg, ICR mice, individual animal, read-out: Tmax
[14] = male, ICR, mouse, plasma, iv, 2 mg/kg, IV 2 mg/kg, ICR mice, individual animal, read-out: t1/2 (converted)
[15] = male, ICR, mouse, plasma, po, 5 mg/kg, PO 5 mg/kg, ICR mice, Mean
[16] = male, ICR, mouse, plasma, po, 5 mg/kg, PO 5 mg/kg, ICR mice, Mean, read-out: AUC(0-t)
[17] = male, ICR, mouse, plasma, po, 5 mg/kg, PO 5 mg/kg, ICR mice, Mean, read-out: Cmax
[18] = male, ICR, mouse, plasma, po, 5 mg/kg, PO 5 mg/kg, ICR mice, Mean, read-out: Tmax
[19] = male, ICR, mouse, plasma, po, 5 mg/kg, PO 5 mg/kg, ICR mice, Mean, read-out: t1/2 (converted)
[20] = male, ICR, mouse, plasma, po, 5 mg/kg, PO 5 mg/kg, ICR mice, individual animal
[21] = male, ICR, mouse, plasma, po, 5 mg/kg, PO 5 mg/kg, ICR mice, individual animal, read-out: Tmax
[22] = male, ICR, mouse, plasma, po, 5 mg/kg, PO 5 mg/kg, ICR mice, individual animal, read-out: t1/2 (converted)
[23] = male, ICR, mouse, plasma, po, 5 mg/kg, oral intragastric administration 5 mg/kg, read-out: AUC0-t

T1 sequence (Q00987 whole entry): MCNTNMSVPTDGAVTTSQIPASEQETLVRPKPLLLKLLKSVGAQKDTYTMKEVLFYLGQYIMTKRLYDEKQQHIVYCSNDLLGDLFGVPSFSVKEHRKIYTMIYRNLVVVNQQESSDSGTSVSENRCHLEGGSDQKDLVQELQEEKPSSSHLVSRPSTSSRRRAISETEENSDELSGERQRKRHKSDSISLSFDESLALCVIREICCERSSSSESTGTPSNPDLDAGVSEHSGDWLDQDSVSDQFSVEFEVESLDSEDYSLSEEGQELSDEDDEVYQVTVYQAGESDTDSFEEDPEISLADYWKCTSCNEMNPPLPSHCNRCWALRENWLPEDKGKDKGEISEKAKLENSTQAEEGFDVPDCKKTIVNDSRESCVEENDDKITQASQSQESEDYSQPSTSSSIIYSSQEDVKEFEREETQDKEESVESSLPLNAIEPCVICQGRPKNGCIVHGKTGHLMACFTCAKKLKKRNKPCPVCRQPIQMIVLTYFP

## COc1cc(N(C)C)ccc1-c1nc2c(n1C(C)C)[C@@]1(C(=O)Nc3cc(Cl)ccc31)N(c1cc(Cl)ccc1C)C2=O [Example S-23, (S)-6-chloro-5′-(5-chloro-2-methylphenyl)-2′-(4-(dimethylamino)-2-methoxyphenyl)-3′-isopropyl-3′H-spiro[dihydroindole-3,4′-pyrrolo[3,4-d]imidazole]-2,6′(5′H)-dione]
MDM2
  IC50: 2.8 nM
[1]; [3]
  AUC(0-t): 6172.76 ng·h/mL and 6625.30 ng·h/mL
  AUC(0-∞): 6427.71 ng·h/mL and 7084.65 ng·h/mL
  CL: 5.19 mL/min/kg and 4.71 mL/min/kg
  Cmax: 3040.32 ng/mL and 3640.21 ng/mL
  MRT(0-t): 1.50 h and 1.55 h
  MRT(0-∞): 1.75 h and 1.99 h
  Vz: 0.60 L/kg and 0.64 L/kg
  t1/2: 1.33 h and 1.57 h
[1]; ICR mice
  F*: 43.18%
[1]; [4]
  AUC(0-t): 9122.66 ng·h/mL and 7675.41 ng·h/mL
  AUC(0-∞): 9163.57 ng·h/mL and 7881.03 ng·h/mL
  Cmax: 3316.65 ng/mL and 2730.39 ng/mL
  MRT(0-t): 2.02 h and 2.08 h
  MRT(0-∞): 2.05 h and 2.29 h
  Tmax: 0.50 h
  t1/2: 0.98 h and 1.52 h
[1]; [5]
  AUC(0-inf): 8010 ng·h/mL
  clearance: 4.35 mL/min/kg
  MRT last: 1.61 h
  MRT inf: 2.07 h
  Vd: 0.58 L/kg
[1]; [6]
  AUC(0-t): 7420 ng·h/mL
[1]; [7]
  Cmax: 3490 ng/mL
[1]; [8]
  Tmax: 0.083 h
[1]; [9]
  half-life: 1.59 h
[1]; [10]
  AUC(0-inf): 10500 ng·h/mL
  clearance: 3.17 mL/min/kg
  MRT last: 1.78 h
  MRT inf: 2.46 h
  Vd: 0.51 L/kg
[1]; [11]
  AUC(0-t): 9460 ng·h/mL
[1]; [12]
  Cmax: 3780 ng/mL
[1]; [13]
  Tmax: 0.08 h
[1]; [14]
  half-life: 1.86 h
[1]; [15]
  AUC(0-inf): 8120 ng·h/mL
  MRT last: 2.15 h
  MRT inf: 2.26 h
[1]; [16]
  AUC(0-t): 8010 ng·h/mL
[1]; [17]
  Cmax: 2700 ng/mL
[1]; [18]
  Tmax: 0.83 h
[1]; [19]
  half-life: 1.22 h
[1]; [20]
  AUC(0-inf): 7320 ng·h/mL
  MRT last: 2.35 h
  MRT inf: 2.43 h
[1]; male, ICR, mouse, plasma, po, 5 mg/kg, PO 5 mg/kg, ICR mice, individual animal, read-out: AUC(0-t)
  AUC(0-t): 7240 ng·h/mL
[1]; male, ICR, mouse, plasma, po, 5 mg/kg, PO 5 mg/kg, ICR mice, individual animal, read-out: Cmax
  Cmax: 2050 ng/mL
[1]; [21]
  Tmax: 1 h
[1]; [22]
  half-life: 1.15 h
[1]; [23]
  AUC(0-t): 8010 ng·h/mL
[2]
  IC50: 1.24 nM

## COc1ncc(-c2nc3c(n2C(C)C)[C@@]2(C(=O)Nc4cc(Cl)ccc42)N(c2cccc(Cl)c2)C3=O)c(OC)n1 [Example S-1, (S)-6-chloro-5′-(3-chlorophenyl)-2′-(2,4-dimethoxypyrimidin-5-yl)-3′-isopropyl-3′H-spiro[dihydroindole-3,4′-pyrrolo[3,4-d]imidazole]-2,6′(5′H)-dione]
MDM2
  IC50: 2.21 nM
[1]; [3]
  AUC(0-t): 843.53 ng·h/mL and 532.69 ng·h/mL
  AUC(0-∞): 855.63 ng·h/mL and 548.82 ng·h/mL
  CL: 38.9578 mL/min/kg and 60.7363 mL/min/kg
  Cmax: 336.17 ng/mL and 307.80 ng/mL
  MRT(0-t): 1.34 h
  MRT(0-∞): 1.43 h and 1.52 h
  Vz: 3.30882 L/kg and 6.38069 L/kg
  t1/2: 0.98 h and 1.21 h
[1]; ICR mice
  F*: 76.30%
[1]; [4]
  AUC(0-t): 1822.90 ng·h/mL and 1944.41 ng·h/mL and 241.17 ng·h/mL
  AUC(0-∞): 1834.25 ng·h/mL and 2088.41 ng·h/mL and 330.15 ng·h/mL
  Cmax: 629.23 ng/mL and 471.21 ng/mL and 92.81 ng/mL
  MRT(0-t): 2.60 h and 1.79 h
  MRT(0-∞): 3.17 h and 3.13 h
  t1/2: 1.98 h and 1.92 h
[1]; [5]
  AUC(0-inf): 714 ng·h/mL
  clearance: 48.3 mL/min/kg
  MRT last: 1.33 h
  MRT inf: 1.45 h
  Vd: 4.54 L/kg
[1]; [6]
  AUC(0-t): 700 ng·h/mL
[1]; [7]
  Cmax: 325 ng/mL
[1]; [8]
  Tmax: 0.083 h
[1]; [9]
  half-life: 1.07 h
[1]; [10]
  AUC(0-inf): 737 ng·h/mL
  clearance: 45.2 mL/min/kg
  MRT last: 1.31 h
  MRT inf: 1.41 h
  Vd: 3.92 L/kg
[1]; [11]
  AUC(0-t): 725 ng·h/mL
[1]; [12]
  Cmax: 330 ng/mL
[1]; [13]
  Tmax: 0.08 h
[1]; [14]
  half-life: 1 h
[1]; [15]
  AUC(0-inf): 1420 ng·h/mL
  MRT last: 2.11 h
  MRT inf: 2.76 h
[1]; [16]
  AUC(0-t): 1340 ng·h/mL
[1]; [17]
  Cmax: 398 ng/mL
[1]; [18]
  Tmax: 1 h
[1]; [19]
  half-life: 1.64 h
[1]; [20]
  MRT last: 1.94 h
  MRT inf: 1.99 h
[1]; [21]
  Tmax: 1 h
[1]; [22]
  half-life: 1.03 h
[1]; [23]
  AUC(0-t): 1340 ng·h/mL
[1]; male, ICR, mouse, plasma, po, 5 mg/kg, oral intragastric administration 5 mg/kg, read-out: half-life (converted)
  half-life: 1.64 h
[2]
  IC50: 39.6 nM
